Biological target: ABCB1 (Homo sapiens, UniProt P08183)
Assay type: biochemical

Sequence of ABCB1 (P08183 whole entry): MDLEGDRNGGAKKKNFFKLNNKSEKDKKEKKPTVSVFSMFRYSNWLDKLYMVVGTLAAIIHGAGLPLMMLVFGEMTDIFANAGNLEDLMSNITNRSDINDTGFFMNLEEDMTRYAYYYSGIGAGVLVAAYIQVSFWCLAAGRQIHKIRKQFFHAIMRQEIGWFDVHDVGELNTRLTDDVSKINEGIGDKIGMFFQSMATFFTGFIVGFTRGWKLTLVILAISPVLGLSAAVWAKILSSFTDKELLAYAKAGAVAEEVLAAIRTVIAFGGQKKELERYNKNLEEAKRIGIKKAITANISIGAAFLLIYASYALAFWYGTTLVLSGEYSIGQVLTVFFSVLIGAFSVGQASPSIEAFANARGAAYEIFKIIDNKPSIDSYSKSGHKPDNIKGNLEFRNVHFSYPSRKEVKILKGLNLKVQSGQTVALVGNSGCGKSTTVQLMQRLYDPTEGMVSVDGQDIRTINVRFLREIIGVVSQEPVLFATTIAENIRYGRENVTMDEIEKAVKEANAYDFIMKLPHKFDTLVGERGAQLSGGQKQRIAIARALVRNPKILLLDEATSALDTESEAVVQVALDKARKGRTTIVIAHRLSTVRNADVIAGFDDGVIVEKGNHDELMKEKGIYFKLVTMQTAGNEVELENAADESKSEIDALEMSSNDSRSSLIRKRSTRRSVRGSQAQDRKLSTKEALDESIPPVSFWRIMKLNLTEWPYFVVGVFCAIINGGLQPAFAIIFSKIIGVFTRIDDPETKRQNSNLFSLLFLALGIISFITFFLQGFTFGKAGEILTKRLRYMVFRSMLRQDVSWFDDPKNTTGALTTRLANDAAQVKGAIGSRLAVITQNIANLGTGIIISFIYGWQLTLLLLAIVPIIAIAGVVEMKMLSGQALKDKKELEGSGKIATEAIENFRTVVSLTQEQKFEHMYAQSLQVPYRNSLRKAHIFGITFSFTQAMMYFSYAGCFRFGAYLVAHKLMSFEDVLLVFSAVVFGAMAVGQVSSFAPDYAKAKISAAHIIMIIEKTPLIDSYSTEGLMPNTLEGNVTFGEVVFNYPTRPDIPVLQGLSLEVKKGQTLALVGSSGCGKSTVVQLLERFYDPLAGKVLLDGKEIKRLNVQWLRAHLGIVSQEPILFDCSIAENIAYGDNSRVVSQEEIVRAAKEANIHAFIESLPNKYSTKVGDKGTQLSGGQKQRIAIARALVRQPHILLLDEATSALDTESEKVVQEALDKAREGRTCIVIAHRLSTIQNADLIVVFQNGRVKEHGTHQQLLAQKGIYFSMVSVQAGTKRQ

- vanadate-sensitive ATPase stimulation in crude membranes of High-five cells expr: 2.5 to 5 µM
Compound: CCN(CC)CCCCNc1ncc2cc(-c3cc(OC)cc(OC)c3)c(NC(=O)NC(C)(C)C)nc2n1 [PD173074]
